The test system of experiment [1] is Penicillium digitatum. As to the kind of experiment: Natural infection of orange and lemon fruit, semi-commercial on line spray treatment. The experiment is classed as in vivo. As to conditions: line spray within 48 hours after harvest, 50-55° F., after 3 weeks. The text has this:
Additional tests were also done to determine the effect of different combinations of biochemicals and microorganisms on natural infections of citrus fruit. Orange and lemon fruit from field bins were washed on line following standard commercial practices [Standard Pre Chlorine was (50 ppm); size and color blemish sorting, and randomized]. Thereafter the fruit was washed and treated with either water, a yeast cell suspension containing 0.1% lysozyme, or Imazalil using an on line spray system. Each treatment consisted of at least 8 to 13 boxes of fruit; each box representing a replicate of approximately 60 to 100 fruit. The fruit was held at 50-55° F. and the percentage of decay was determined after 3 weeks.

The subject of the next experiment is Candida saitoana. Kind of experiment: Survival of Candida saitoana in enzyme solutions (yeast maltose broth). It counts as cell-based. Particulars: for Yeast Cell Counts (CFU/ml) 1 day / Yeast Cell Counts (CFU/ml) 4 days: inoculated with 10^4 yeast cells/ml, yeast maltose broth. The protocol:
The effect of lysozyme and lyticase on the survival of C. saitoana in yeast maltose broth was also determined. Culture flasks containing sterile solutions of 0.2% yeast maltose broth were amended with membrane-sterilized solutions of lysozyme and lyticase to obtain a concentration of 0.1% and 0.6% of lysozyme and lyticase, respectively. Each flask was started with approximately 10^4 colony forming units (CFU) of yeast and the flasks were incubated on an orbital shaker set at 200 rpm. Samples were collected and dilution-plated in duplicate on yeast-maltose agar medium. The plates were incubated 24° C. and colonies were counted after 48 h.

The next experiment deals with P. expansum. Kind of experiment: Curative effect on established infection of apple fruit (treated 24 hours after inoculation). The experiment is classed as in vivo, Penicillium expansum. As to conditions: treatment 24 hours after inoculation. The procedure:
(§1) Yeast cells from 48 hour old cultures of C. saitoana were pelleted by centrifugation, resuspended in sterile distilled water, and centrifuged. Pellets were suspended in water, 0.01% and 0.1% lysozyme of 0.6% lyticase, and the concentration of the yeast suspension was adjusted to 10^8 CFU/ml.
(§2) Apple, orange, and lemon fruit were individually wounded and each wound was treated with fifty microliters of one of the following treatments:
(§3) Fruit wounds were either treated with the different treatments and then inoculated with 20 μL of a pathogen spore suspension to determine protective effects, or inoculated with a pathogen spore suspension and 24 hours later were treated with the different treatments to determine curative effects. Apple wounds were inoculated (i.e., pathogens were placed in the wound) with the pathogens B. cinerea and P. expansum, whereas orange and lemon wounds were inoculated with P. digitatum. Treated fruit were incubated at 24° C. in plastic trays at high humidity. For each treatment, 20 to 100 fruit were arranged in a randomized complete block design. Percent infection was determined for each treatment after 7 days of storage. The tests were repeated twice. […] The effect was greater than for either agent alone.
(§4) In the past, the lack of curative activity has been identified as a major limitation of biological approaches to pathogen control.

The test system of a further experiment is Botrytis cinerea. As to the kind of experiment: Inhibition of spore germination in 24-well microtiter dish. It counts as cell-based. As to conditions: for Inhibition of Germination (%) Botrytis cinerea: five hundred spores per well, 0.2% maltose extract broth, 24° C., after 24 hours. The protocol: The inhibitory activity of antifungal enzymes, in this example, lysozyme and lyticase, against the pathogen Botrytis cinerea, was determined in a 24-well microtiter dish. Autoclaved solutions of 0.2% maltose extract broth were amended with membrane-sterilized solutions of lysozyme and lyticase to obtain a concentration of 0.1% and 0.5% of lysozyme and lyticase, respectively. One hundred microliters of the enzyme solution was dispensed into each well. Each well was inoculated with five hundred spores of B. cinerea. Four replicates of eight wells were used for each treatment. Microtiter dishes were incubated in the dark at 24° C. Percent spore germination was determined after 24 hours. Spores were inhibited by either enzyme.

In experiment [2] the test system is Penicillium digitatum. Kind of experiment: Protective effect on decay of wounded orange and lemon fruit, treated then challenge inoculated. It counts as in vivo. As to conditions: wounds treated then inoculated with 20 μL P. digitatum 10^4 conidia/ml, 7 days at 24° C. The protocol: as §1, §2
yeast cell suspension (C. saitoana);
yeast cell suspension containing 0.01% or 0.1% lysozyme;
yeast cell suspension containing 0.6% lyticase;
as §3

A further experiment deals with P. digitatum. Kind of experiment: Curative effect on established infection of citrus fruit (treated 24 hours after inoculation). It counts as in vivo, Penicillium digitatum. As to conditions: treatment 24 hours after inoculation. The protocol: as §1, §2, §3, §4

Bounds are passed on as bounds.

Take `C=CCOC(Cn1ccnc1)c1ccc(Cl)cc1Cl` (stereo not shown) [Imazalil]: in the experiment on Penicillium digitatum [1] (lemon), the “Infected Fruit (%) Penicillium digitatum Lemon” value was found to be 4.6b %. Also, in the experiment on Penicillium digitatum [1] (orange), the “Infected Fruit (%) Penicillium digitatum Orange” value is given as 2.4b %.
Consider lysozyme, for which, in the experiment with Candida saitoana, the “Effect on growth / survival of the yeast C. saitoana (in words)” value is “no effect”, the “Yeast Cell Counts (CFU/ml) 1 day” value is listed as >2.0 × 10^5 CFU/ml and the “Yeast Cell Counts (CFU/ml) 4 days” value was >2.0 × 10^5 CFU/ml. Moreover, the “Effect on established infection caused by P. expansum (in words)” value with P. expansum was “little effect”. Also, in the experiment with Botrytis cinerea, the “Inhibitory activity against Botrytis cinerea spores (in words)” value is “inhibitory” and the “Inhibition of Germination (%) Botrytis cinerea” value is on record as 100%. Moreover, in the experiment with Penicillium digitatum [2], the “Infected Fruit (%) Penicillium digitatum Lemon” value was determined as 86b % and the “Infected Fruit (%) Penicillium digitatum Orange” value came out at 88%. In the experiment with Penicillium digitatum [2] (listed as 0.01% lysozyme), the “Infected Fruit (%) Penicillium digitatum Orange” value came out at 88b %. Further, in the experiment with P. digitatum, the “Effect on established infection caused by P. digitatum (in words)” value is reported as “little effect”.
Take lyticase: in the experiment with Candida saitoana, the “Effect on growth / survival of the yeast C. saitoana (in words)” value is given as “no effect”, the “Yeast Cell Counts (CFU/ml) 1 day” value is >2.0 × 10^5 CFU/ml and the “Yeast Cell Counts (CFU/ml) 4 days” value is on record as >2.0 × 10^5 CFU/ml. Besides, the “Effect on established infection caused by P. expansum (in words)” value in the experiment with P. expansum was “little effect”. For the same compound, in the experiment with Botrytis cinerea, the “Inhibitory activity against Botrytis cinerea spores (in words)” value is reported as “inhibitory” and the “Inhibition of Germination (%) Botrytis cinerea” value came to 100%. Besides, in the experiment with Penicillium digitatum [2], the “Infected Fruit (%) Penicillium digitatum Lemon” value is reported as 85b % and the “Infected Fruit (%) Penicillium digitatum Orange” value was determined as 88%. Also, the “Infected Fruit (%) Penicillium digitatum Orange” value in the experiment with Penicillium digitatum [2] (listed as 0.1% lyticase) is listed as 88b %. In the experiment with P. digitatum, the “Effect on established infection caused by P. digitatum (in words)” value is given as “little effect”.

Values taken from patent publication US6419922B1, “Candida saitoana compositions for biocontrol of plant postharvest decay” (Biotechnology Research and Development Corporation, priority 1998, dated 2002).
